Assay results as given in patent US20190241535A1, “3-SUBSTITUTED CARBONYL-NAPHTHO[2,3-B]FURANE DERIVATIVE OR PHARMACEUTICALLY ACCEPTABLE SALT THEREOF” (Boston Biomedical, Inc., priority 2014, published 2019).
pIC50: −log10 of the molar value. Converted amounts (≈) assume the structure as drawn. Where a name gives a salt, the structure may show the parent alone. Read-outs that look alike come from different tables or passages of the source.

Columns and labels:
[1] = tested on: HT-29 cell; test: Test 1: growth inhibition in cancer cell (Bulk IC50); type: cell-based; conditions: Homo sapiens, 96 h, adherent culture, incubated 4 days, CellTiter-Glo
Experimental: (§1) HCT-116 cell, HT-29 cell, and FaDu cell were obtained from the American Type Culture Collection (ATCC). HCT-116 cell and HT-29 cell were cultivated at 37° C. in the presence of 5% CO2 using McCoy's 5a medium containing 10% fetal bovine serum (FBS), and 1% penicillin/streptomycin; and FaDu cell was cultivated at 37° C. in the presence of 5% CO2 using MEM containing 10% FBS, 1% non-essential amino acid, 1% sodium pyruvate, and 1% penicillin/streptomycin. Each cell was seeded on μClear-plate black 384 wells (Greiner bio-one Cat. No. 781091) in 300-600 cells/well, and then each test sample was added thereto to adjust the final concentration thereof in DMSO to 0.1% and the test wells were incubated for 4 days. And then, the viable cell count of each sample was measured using CellTiter-Glo® Luminescent Cell Viability Assay (Promega), and the concentration to inhibit the cell growth in each test sample by 50% was calculated (Bulk IC50 Value; μM).

[2] = tested on: FaDu cell; test: as above; type: cell-based; conditions: Homo sapiens, 96 h, adherent culture, incubated 4 days, CellTiter-Glo
Experimental: as §1

[3] = tested on: HCT-116 cell; test: as above; type: cell-based; conditions: Homo sapiens, 96 h, adherent culture, incubated 4 days, CellTiter-Glo
Experimental: as §1

[4] = tested on: HT-29 cell; test: Test 2: inhibition of forming cancer cell sphere (Sphere IC50); type: cell-based; conditions: Homo sapiens, 96 h, ultra-low attachment plate, serum-free sphere medium, 4 days, CellTiter-Glo
Experimental: (§2) HCT-116 cell, HT-29 cell, and FaDu cell were obtained from the American Type Culture Collection (ATCC). HCT-116 cell and HT-29 cell were cultivated at 37° C. in the presence of 5% CO2 using McCoy's 5a medium containing 10% fetal bovine serum (FBS), and 1% penicillin/streptomycin; and FaDu cell was cultivated at 37° C. in the presence of 5% CO2 using MEM containing 10% FBS, 1% non-essential amino acid, 1% sodium pyruvate, and 1% penicillin/streptomycin. Each of HCT-116 cell, HT-29 cell, and FaDu cell was seeded on 384 Wells Black Clear Bottom Ultra-Low Attachment Microplate (Corning Cat. No. 3827) in 350-800 cells/well, with DMEM/F12 medium containing 2% B27 supplement (GIBCO), 20 ng/mL epidermal growth factor (EGF) (peprotech), 10 ng/mL basic fibroblast growth factor (bFGF) (peprotech), 5 μg/mL insulin (Sigma), and 1% penicillin/streptomycin. Each test sample was added thereto to adjust the final concentration thereof in DMSO to 0.1% and the test wells were incubated for 4 days. And then, the viable cell count of each sample was measured using CellTiter-Glo® Luminescent Cell Viability Assay (Promega), and the concentration to inhibit the cell growth in each test sample by 50% was calculated (Sphere IC50 Value;μM).

[5] = tested on: FaDu cell; test: as above; type: cell-based; conditions: Homo sapiens, 96 h, ultra-low attachment plate, serum-free sphere medium, 4 days, CellTiter-Glo
Experimental: as §2

[6] = tested on: HCT-116 cell; test: as above; type: cell-based; conditions: Homo sapiens, 96 h, ultra-low attachment plate, serum-free sphere medium, 4 days, CellTiter-Glo
Experimental: as §2

[7] = Test 3: solubility test; type: physicochemical; conditions: kinetic from dmso stock, 1% DMSO, HPLC
Experimental: Each 15 μL of each test sample (10 mM DMSO solution) was dispensed into 4 Utubes on a 96 well rack. Then, each sample was evaporated to dryness with a rotary evaporator. 3 μL of DMSO was added to each dried sample to be re-dissolved. And, 300 μL of pH 7.4 buffer was added to the 2 wells and 300 μL of pH 1.2 buffer was added to the other 2 wells. After shaking each sample solution, the samples were still stood. Then, each sample solution was centrifuged to remove insoluble matter, and 100 μL of the supernatant was picked up on a 96 well plate. Separately, 2 μL of each test sample (10 mM DMSO solution) was dispensed on a 96 well plate, and diluted with 198 μL of 50% acetonitrile to prepare each 100 μM standard solution. Further, the 100 μM standard solution was diluted with 50% acetonitrile to prepare each 10 μM standard solution. The above test samples for the solubility test and the two kinds of the standard samples were analyzed with a HPLC. The solubility of each test sample was calculated as an area ratio per the standard solutions.

[8] = aqueous buffer, pH 7.4 buffer, read-out: Solubility pH 7.4
[9] = simulated gastric fluid, pH 1.2 buffer, read-out: Solubility pH 1.2

pIC50 [1] | pIC50 [2] | pIC50 [3] | pIC50 [4] | pIC50 [5] | pIC50 [6] | solubility [7, 8] [µg/mL] | solubility [7, 9] [µg/mL] | SMILES
6.47 | 6.49 | 6.55 | 6.40 | 6.23 | 6.42 | 0.5 (≈ 1.68 µM) | 0.8 (≈ 2.68 µM) | COC(=O)c1c(C(C)=O)oc2c1C(=O)c1ccccc1C2=O [Example 2, Methyl 2-acetyl-4,9-dioxo-4,9-dihydronaphtho[2,3-b]furan-3-carboxylate]
6.15 | 6.25 | 6.23 | 6.07 | 6.15 | 5.47 | 107 (≈ 344 µM) | 115 (≈ 369 µM) | CC(=O)c1oc2c(c1C(=O)N(C)C)C(=O)c1ccccc1C2=O [Example 4, 2-Acetyl-N,N-dimethyl-4,9-dioxo-4,9-dihydronaphtho[2,3-b]furan-3-carboxamide]
5.24 | 5.35 | 5.27 | 5.23 | 5.35 | 5.27 | < 0.1 | < 0.1 | CN(C)C(=O)c1c(-c2ccc(F)cc2)oc2c1C(=O)c1ccccc1C2=O [Example 11, 2-(4-Fluorophenyl)-N,N-dimethyl-4,9-dioxo-4,9-dihydronaphtho[2,3-b]furan-3-carboxamide]
6.52 | 6.52 | 6.57 | 6.49 | 6.39 | 6.49 | 38 (≈ 113 µM) | 63 (≈ 187 µM) | CN(C)C(=O)c1c(C(F)(F)F)oc2c1C(=O)c1ccccc1C2=O [Example 21, N,N-dimethyl-4,9-dioxo-2-(trifluoromethyl)-4,9-dihydronaphtho[2,3-b]furan-3-carboxamide]

Further lines, the compound ahead of its results:

SMILES | pIC50 [1] | pIC50 [2] | pIC50 [3] | pIC50 [4] | pIC50 [5] | pIC50 [6] | solubility [7, 8] [µg/mL] | solubility [7, 9] [µg/mL]
COC(=O)c1c(C(C)(OC)OC)oc2c1C(=O)c1ccccc1C2=O [Example 1, Methyl 2-(1,1-dimethoxyethyl)-4,9-dioxo-4,9-dihydronaphtho[2,3-b]furan-3-carboxylate] | 5.65 | 6.42 | 6.36 | 5.66 | 5.67 | 5.76 | – | –
CC(=O)c1oc2c(c1C(=O)N1CCN(C)CC1)C(=O)c1ccccc1C2=O [Example 5, 2-Acetyl-3-(4-methylpiperazine-1-carbonyl)naphtho[2,3-b]furan-4,9-dione hydrochloride] | 6.24 | 6.27 | 6.21 | 6.22 | 6.18 | 5.51 | 127 | 152
COC(=O)c1c(C(F)(F)F)oc2c1C(=O)c1ccccc1C2=O [Example 6, Methyl 4,9-dioxo-2-(trifluoromethyl)-4,9-dihydronaphtho[2,3-b]furan-3-carboxylate] | 5.55 | 5.58 | 5.63 | 5.52 | 5.44 | 5.55 | – | –
COC(=O)c1c(-c2cccnc2)oc2c1C(=O)c1ccccc1C2=O [Example 12, Methyl 4,9-dioxo-2-(pyridin-3-yl)-4,9-dihydronaphtho[2,3-b]furan-3-carboxylate] | < 5.00 | 5.63 | 5.16 | < 5.00 | 5.24 | < 5.00 | – | –
CC(=O)c1oc2c(c1C(=O)N1CCOCC1)C(=O)c1ccccc1C2=O [Example 14, 2-Acetyl-3-(morpholine-4-carbonyl)naphtho[2,3-b]furan-4,9-dione] | 5.45 | 6.12 | 6.13 | 6.15 | 6.27 | 5.74 | 121 (≈ 342 µM) | 131 (≈ 371 µM)
